According to ChEMBL document CHEMBL1134446, “Polyamine analogue antidiarrheals: a structure-activity study” (J Med Chem, 2001):
Several values for one entry are separate records, joined by “and”; a condition that tells them apart may be missing. Identical values can stand only once.

Assays:
Canis familiaris [1] = experiment: Spermidine Distribution in kidney was determined after DESPM dosing of 6.0 mg/kg/day for 4.5 days in dog(cu dose-52.4) and sacrificed at 75 days PLD(cu dose-27 mg/kg); type: ADME, organism-based, Canis lupus familiaris; settings: in vivo, 1800 h
Canis familiaris [2] = experiment: Spermine Distribution in liver was determined after DESPM dosing of 8.0 mg/kg/day for 4.5 days in dog(cu dose-52.4) and sacrificed at 10 days PLD(cu dose-36 mg/kg); type: ADME, organism-based, Canis lupus familiaris; settings: in vivo, 240 h
Canis familiaris [3] = experiment: MESPM/MEHSPH Distribution in liver was determined after DESPM dosing of 1.87 mg/kg/day for 28 days in dog(cu dose-52.4) and sacrificed at 10 days PLD(cu dose-52.4 mg/kg); type: ADME, organism-based, Canis lupus familiaris; settings: in vivo, 240 h
Rattus norvegicus [4] = experiment: Percent reduction was determined by using the ratio of mean of treated animal to that of control animal at a dose of 4.7 mg/kg; type: functional
Canis familiaris [5] = experiment: putrescine Distribution in liver was determined after DESPM dosing of 1.87 mg/kg/day for 28 days in dog(cu dose-52.4) and sacrificed at 75 days PLD(cu dose-52.4 mg/kg); type: ADME, organism-based, Canis lupus familiaris; settings: in vivo, 1800 h
Rattus norvegicus [6] = experiment: Stool output of rat over the 6-h collection period when a dose of 9.4 mg/kg (23.3 administered; type: functional
Canis familiaris [7] = experiment: putrescine Distribution in kidney was determined after DESPM dosing of 4.0 mg/kg/day for 13 days in dog and sacrificed at 75 days PLD(cu dose-52 mg/kg); type: ADME, organism-based, Canis lupus familiaris; settings: in vivo, 1800 h
Rattus norvegicus [8] = experiment: Stool output of rat over the 6-h collection period when a dose of 14.3 mg/kg (35.4 administered; type: functional
Rattus norvegicus [9] = experiment: Weight loss of rat over the 6-h experimental period when a dose of 14.3 mg/kg (35.4 administered; type: functional
Canis familiaris [10] = experiment: Spermine Distribution in liver was determined after DESPM dosing of 6.0 mg/kg/day for 4.5 days in dog(cu dose-52.4) and sacrificed at 75 days PLD(cu dose-27 mg/kg); type: ADME, organism-based, Canis lupus familiaris; settings: in vivo, 1800 h
Canis familiaris [11] = experiment: putrescine Distribution in liver was determined after DESPM dosing of 1.87 mg/kg/day for 28 days in dog(cu dose-52.4) and sacrificed at 10 days PLD(cu dose-52.4 mg/kg); type: ADME, organism-based, Canis lupus familiaris; settings: in vivo, 240 h
[12] = The acute toxicity was determined in female CD1 mice after (ip) administration; type: functional; settings: Mus musculus
Canis familiaris [13] = experiment: Spermine Distribution in kidney was determined after DESPM dosing of 4 mg/kg/day for 13 days in dog(cu dose-52.4) and sacrificed at 75 days PLD(cu dose-52 mg/kg); type: ADME, organism-based, Canis lupus familiaris; settings: in vivo, 1800 h
Canis familiaris [14] = experiment: putrescine Distribution in liver was determined after DESPM dosing of 6.0 mg/kg/day for 4.5 days in dog(cu dose-52.4) and sacrificed at 75 days PLD(cu dose-27 mg/kg); type: ADME, organism-based, Canis lupus familiaris; settings: in vivo, 1800 h
Canis familiaris [15] = experiment: putrescine Distribution in kidney was determined after DESPM dosing of 8.0 mg/kg/day for 4.5 days in dog and sacrificed at 10 days PLD(cu dose-36 mg/kg); type: ADME, organism-based, Canis lupus familiaris; settings: in vivo, 240 h
Canis familiaris [16] = experiment: MESPM/MEHSPH Distribution in liver was determined after DESPM dosing of 4 mg/kg/day for 13 days in dog(cu dose-52.4) and sacrificed at 10 days PLD(cu dose-52 mg/kg); type: ADME, organism-based, Canis lupus familiaris; settings: in vivo, 240 h
[17] = The chronic toxicity was determined in female CD1 mice after (ip) administration; type: functional; settings: Mus musculus
Canis familiaris [18] = experiment: MESPM/MEHSPH Distribution in kidney was determined after DESPM dosing of 1.87 mg/kg/day for 28 days in dog(cu dose-52.4) and sacrificed at 75 days PLD(cu dose-52.4 mg/kg); type: ADME, organism-based, Canis lupus familiaris; settings: in vivo, 1800 h
Canis familiaris [19] = experiment: Spermidine Distribution in liver was determined after DESPM dosing of 6.0 mg/kg/day for 4.5 days in dog(cu dose-52.4) and sacrificed at 75 days PLD(cu dose-27 mg/kg); type: ADME, organism-based, Canis lupus familiaris; settings: in vivo, 1800 h
Canis familiaris [20] = experiment: MESPM/MEHSPH Distribution in kidney was determined after DESPM dosing of 1.87 mg/kg/day for 28 days in dog(cu dose-52.4) and sacrificed at 10 days PLD(cu dose-52.4 mg/kg); type: ADME, organism-based, Canis lupus familiaris; settings: in vivo, 240 h
Canis familiaris [21] = experiment: Spermidine Distribution in liver was determined after DESPM dosing of 6.0 mg/kg/day for 4.5 days in dog(cu dose-52.4) and sacrificed at 10 days PLD(cu dose-27 mg/kg); type: ADME, organism-based, Canis lupus familiaris; settings: in vivo, 240 h
Canis familiaris [22] = experiment: Spermidine Distribution in kidney was determined after DESPM dosing of 6.0 mg/kg/day for 4.5 days in dog(cu dose-52.4) and sacrificed at 10 days PLD(cu dose-27 mg/kg); type: ADME, organism-based, Canis lupus familiaris; settings: in vivo, 240 h
Canis familiaris [23] = experiment: Distribution in liver was determined after DEHSPM dosing of 2.0 mg/kg/day for 29 days in dog(cu dose-52.4) and sacrificed at 10 days PLD(cu dose-22 mg/kg); type: ADME, organism-based, Canis lupus familiaris; settings: in vivo, 240 h
Canis familiaris [24] = experiment: MESPM/MEHSPH Distribution in liver was determined after DEHSPM dosing of 2.0 mg/kg/day for 29 days in dog(cu dose-52.4) and sacrificed at 10 days PLD(cu dose-22 mg/kg); type: ADME, organism-based, Canis lupus familiaris; settings: in vivo, 240 h
Canis familiaris [25] = experiment: Distribution in kidney was determined after DESPM dosing of 6.0 mg/kg/day for 4.5 days in dog(cu dose-52.4) and sacrificed at 10 days PLD(cu dose-27 mg/kg); type: ADME, organism-based, Canis lupus familiaris; settings: in vivo, 240 h
Canis familiaris [26] = experiment: Spermine Distribution in kidney was determined after DEHSPM dosing of 2.0 mg/kg/day for 29 days in dog(cu dose-52.4) and sacrificed at 10 days PLD(cu dose-22 mg/kg); type: ADME, organism-based, Canis lupus familiaris; settings: in vivo, 240 h
Canis familiaris [27] = experiment: Distribution in kidney was determined after DESPM dosing of 8.0 mg/kg/day for 4.5 days in dog(cu dose-52.4) and sacrificed at 10 days PLD(cu dose-36 mg/kg); type: ADME, organism-based, Canis lupus familiaris; settings: in vivo, 240 h
Canis familiaris [28] = experiment: putrescine Distribution in liver was determined after DEHSPM dosing of 2.0 mg/kg/day for 29 days in dog(cu dose-52.4) and sacrificed at 10 days PLD([…]); type: ADME, organism-based, Canis lupus familiaris; settings: in vivo, 240 h
Canis familiaris [29] = experiment: Distribution in liver was determined after DESPM dosing of 4 mg/kg/day for 13 days in dog(cu dose-52.4) and sacrificed at 10 days PLD(cu dose-52 mg/kg); type: ADME, organism-based, Canis lupus familiaris; settings: in vivo, 240 h
Canis familiaris [30] = experiment: Distribution in kidney was determined after DESPM dosing of 4 mg/kg/day for 13 days in dog(cu dose-52.4) and sacrificed at 75 days PLD(cu dose-52 mg/kg); type: ADME, organism-based, Canis lupus familiaris; settings: in vivo, 1800 h
Canis familiaris [31] = experiment: Distribution in kidney was determined after DESPM dosing of 4 mg/kg/day for 13 days in dog(cu dose-52.4) and sacrificed at 10 days PLD(cu dose-52 mg/kg); type: ADME, organism-based, Canis lupus familiaris; settings: in vivo, 240 h
Canis familiaris [32] = experiment: Distribution in kidney was determined after DEHSPM dosing of 2.0 mg/kg/day for 29 days in dog(cu dose-52.4) and sacrificed at 10 days PLD(cu dose-58 mg/kg); type: ADME, organism-based, Canis lupus familiaris; settings: in vivo, 240 h
Canis familiaris [33] = experiment: Distribution in liver was determined after DEHSPM dosing of 2.0 mg/kg/day for 29 days in dog(cu dose-52.4) and sacrificed at 10 days PLD(cu dose-58 mg/kg); type: ADME, organism-based, Canis lupus familiaris; settings: in vivo, 240 h
Canis familiaris [34] = experiment: Spermidine Distribution in kidney was determined after DEHSPM dosing of 2.0 mg/kg/day for 29 days in dog(cu dose-52.4) and sacrificed at 10 days PLD(cu dose-58 mg/kg); type: ADME, organism-based, Canis lupus familiaris; settings: in vivo, 240 h

## CCNCCCNCCCCNCCCNCC [BIS(ETHYL)SPERMINE]
Canis familiaris [1]
  Wet weight of tissue: 90 nM/g
Canis familiaris [2]
  Wet weight of tissue: 937 nM/g
Canis familiaris [3]
  Wet weight of tissue: 7 nM/g
Rattus norvegicus [4]
  Reduction: 37% and 60%
Canis familiaris [5]
  Wet weight of tissue: 28 nM/g
Rattus norvegicus [6]
  Stool output: <0.6 g (350g of rat weight)-1
Canis familiaris [7]
  Wet weight of tissue: 7 nM/g
Rattus norvegicus [8]
  Stool output: <0.6 g (350g of rat weight)-1
Rattus norvegicus [9]
  Weight loss: <4.4 g
Canis familiaris [10]
  Wet weight of tissue: 992 nM/g
Canis familiaris [11]
  Wet weight of tissue: 86 nM/g
[12]
  LD50: 400 mg/kg
Canis familiaris [13]
  Wet weight of tissue: 534 nM/g
Canis familiaris [14]
  Wet weight of tissue: 101 nM/g
Canis familiaris [15]
  Wet weight of tissue: 20 nM/g
Canis familiaris [16]
  Wet weight of tissue: 34 nM/g
[17]
  LD50: 80 mg/kg
Canis familiaris [18]
  Wet weight of tissue: 0 nM/g
Canis familiaris [19]
  Wet weight of tissue: 244 nM/g
Canis familiaris [20]
  Wet weight of tissue: 12 nM/g
Canis familiaris [21]
  Wet weight of tissue: 181 nM/g
Canis familiaris [22]
  Wet weight of tissue: 60 nM/g

## CCNCCCCNCCCCNCCCCNCC [DIETHYLHOMOSPERMINE]
Canis familiaris [23]
  Wet weight of tissue: 0 nM/g
Canis familiaris [24]
  Wet weight of tissue: 13 nM/g
Canis familiaris [25]
  Wet weight of tissue: 44 nM/g
Canis familiaris [26]
  Wet weight of tissue: 611 nM/g
Canis familiaris [27]
  Wet weight of tissue: 48 nM/g
Canis familiaris [28]
  Wet weight of tissue: 34 nM/g
Canis familiaris [29]
  Wet weight of tissue: 36 nM/g
Canis familiaris [30]
  Wet weight of tissue: 0 nM/g
[12]
  LD50: 300 mg/kg
Canis familiaris [31]
  Wet weight of tissue: 46 nM/g
Canis familiaris [32]
  Wet weight of tissue: 98 nM/g
[17]
  LD50: 38 mg/kg
Canis familiaris [33]
  Wet weight of tissue: 80 nM/g
Canis familiaris [34]
  Wet weight of tissue: 41 nM/g
